Data reported in US12083141B2, “Treatment of hyperglycemia with solute carrier family 39 member 5 (SLC39A5) inhibitors” (Regeneron Pharmaceuticals, Inc., priority 2019, dated 2024).

How the values were obtained:
[1] = system: human primary hepatocytes; assay: Zinc activation of LKB1/AMPK and AKT signaling in primary hepatocytes; format: cell-based; settings: acute, dose dependent
Experimental: Liver protein was extracted using RIPA buffer (Cell signaling technology, Cat #9806) with Halt Protease & Phosphatase Inhibitor Cocktail (ThermoFisher Scientific, Cat #78440). Five microgram protein of each sample were separated in NuPAGE 4-12% Bis-Tris protein gel (Invitrogen, Cat #WG1403BOX), and transferred to nitrocellulose membrane using Trans-Blot® Turbo™ Transfer System (BioRad). Blotting was performed using the following Cell Signaling Technology antibodies: Phospho-AMPKα (Thr172) (Cell signaling technology, Cat #2535), AMPKα (Cell signaling technology, Cat #5831), β-Actin (Sigma, Cat #5441), Phospho-AKT (Ser473) (Cell signaling technology, Cat #4060), AKT (Cell signaling technology, Cat #9272), Phospho-LKB1 (Ser428) (Cell signaling technology, Cat #3482), LKB1 (Cell signaling technology, Cat #3050), rabbit IgG conjugated to horseradish peroxidase (HRP) (Cell signaling technology, Cat #7074) and mouse IgG conjugated to HRP (Cell signaling technology, Cat #7076). Blots were developed using SuperSignal West Femto Substrate (ThermoFisher Scientific, Cat #34095). Signals were captured using ImageQuant LAS4000 (GE Healthcare).

tyrosine phosphatase [2] = assay: Ex vivo tyrosine phosphatase activity in SLC39A5 loss-of-function mice, diet zinc supplementation; settings: high fat diets supplemented with different zinc concentrations, ex vivo assay
mice fed high fat diet = assay: Zinc supplementation of high fat diet in mice (DIO); format: in vivo; settings: for hepatic zinc levels: zinc-supplemented diet
Experimental: Four groups of 6-week old male mice (16 per group) were fed either normal chow or high fat diets supplemented with different zinc concentrations for either 4 or 6 weeks (FIG. 2A). The levels of zinc were analyzed after 4 weeks (FIGS. 2B and 2C) and after 6 weeks (FIGS. 2D and 2E).

tyrosine phosphatase [3] = assay: Dependence of tyrosine phosphatase activity on zinc concentration; format: biochemical; settings: increased concentrations of zinc
[4] = system: serine/threonine phosphatase; assay: Dependence of serine/threonine phosphatase activity on zinc concentration; format: biochemical; settings: increased concentrations of zinc
[5] = system: human hepatoma HepG2 cells; assay: Zinc activation of LKB1/AMPK and AKT signaling in HepG2 cells; format: cell-based; settings: acute, dose dependent
[6] = system: serine/threonine phosphatase; assay: Ex vivo serine/threonine phosphatase activity in SLC39A5 loss-of-function mice, diet zinc supplementation; settings: high fat diets supplemented with different zinc concentrations, ex vivo assay

[Zn] [zinc]
LKB1/AMPK and AKT signaling pathways [1]: acutely activates LKB1/AMPK and AKT signaling pathways in dose dependent manner
rescue of tyrosine phosphatase inhibition caused by loss of SLC39A5 (tyrosine phosphatase [2]): did not rescue the inhibition
fat accumulation in liver (microscopic analysis) (mice fed high fat diet; high fat diet supplemented with zinc): reverses fat accumulation in liver
intravenous glucose tolerance test, blood glucose (mice fed high fat diet; high fat diet with increasing diet zinc concentration, 4 or 6 weeks): mitigated blood glucose increase mediated by high fat diet
intravenous glucose tolerance test, area under the curve (mice fed high fat diet; high fat diet with increasing diet zinc concentration, effect not statistically significant): reduced area under the curve
serum zinc levels (mice fed high fat diet; male mice, diets supplemented with different zinc concentrations, 4 and 6 weeks): no significant change
hepatic zinc levels (mice fed high fat diet; male mice, after 4 weeks): no significant change
hepatic zinc levels (mice fed high fat diet; male mice, after 6 weeks, correlated with level of zinc in diet): statistically significant increase
tyrosine phosphatase activity (tyrosine phosphatase [3]): suppressed the activity
serine/threonine phosphatase activity [4]: suppressed the activity
LKB1/AMPK and AKT signaling pathways [5]: acutely activates LKB1/AMPK and AKT signaling pathways in dose dependent manner
rescue of serine/threonine phosphatase inhibition caused by loss of SLC39A5 [6]: did not rescue the inhibition
